Results reported in patent US10538498B2, “1,3,4-oxadiazole sulfonamide derivative compounds as histone deacetylase 6 inhibitor, and the pharmaceutical composition comprising the same” (Chong Kun Dang Pharmaceutical Corp., priority 2015, dated 2020).
pIC50: −log10 of the molar value.

How the values were obtained:
human recombinant HDAC1 = target: T1, human recombinant HDAC1 (Homo sapiens, UniProt Q13547); assay: HDAC1 enzyme activity inhibition assay (HDAC Fluorimetric Drug Discovery Kit); type: biochemical; settings: 0.3 μg enzyme, 10 μM substrate, 30° C., 60 minutes
T1 construct: purchased Enzo Life Science BML-SE456
T1 sequence (Q13547 whole entry): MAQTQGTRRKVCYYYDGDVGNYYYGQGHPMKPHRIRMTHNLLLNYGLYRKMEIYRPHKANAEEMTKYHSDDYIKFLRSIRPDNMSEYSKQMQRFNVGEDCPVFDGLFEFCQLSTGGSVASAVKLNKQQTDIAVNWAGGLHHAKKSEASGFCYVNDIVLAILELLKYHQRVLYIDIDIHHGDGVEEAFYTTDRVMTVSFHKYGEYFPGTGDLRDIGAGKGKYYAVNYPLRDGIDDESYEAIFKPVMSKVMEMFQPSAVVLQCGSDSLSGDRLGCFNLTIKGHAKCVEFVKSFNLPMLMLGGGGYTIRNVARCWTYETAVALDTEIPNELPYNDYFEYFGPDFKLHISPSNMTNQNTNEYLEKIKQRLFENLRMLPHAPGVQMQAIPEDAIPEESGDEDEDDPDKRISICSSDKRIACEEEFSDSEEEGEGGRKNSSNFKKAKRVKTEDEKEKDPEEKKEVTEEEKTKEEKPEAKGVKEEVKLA
Method: In order to examine the HDAC6 selectivity of the compounds of formula I of the present invention by HDAC1 and HDAC6 enzymatic activity inhibition assays, an experiment was performed using a conventional substance as a control.
HDAC enzyme activity was measured using a HDAC Fluorimetric Drug Discovery Kit (BML-AK511, 516, Enzo Life Science). For the HDAC1 enzyme activity test, human recombinant HDAC1 (BML-SE456) was used as an enzyme source, and Fluor de Lys®-“SIRT1 (BNL-KI177) was used as a substrate. A 5-fold dilution of the compound was seeded into a 96-well plate, and then 0.3 μg of the enzyme and 10 μM of the substrate were added to each well of the plate and allowed to react at 30° C. for 60 minutes. Then, Fluor de Lys®-Developer II (BML-KI176) was added thereto and allowed to react for 30 minutes, after which the fluorescence value (Ex 360, Em 460) was measured using a multi-plate reader (Flexstation 3, Molecular Device). The HDAC6 enzyme was tested using human recombinant HDAC6 (382180) (Calbiochem) according to the same protocol as the HDAC1 enzyme activity test method. Based on the resulting values, each IC50 value was calculated using GraphPad Prism4.0 program.

human recombinant HDAC6 = target: T2, human recombinant HDAC6 (Homo sapiens, UniProt Q9UBN7); assay: HDAC6 enzyme activity inhibition assay (HDAC Fluorimetric Drug Discovery Kit); type: biochemical; settings: for HDAC6 selectivity (fold): HDAC1 vs HDAC6; for pIC50: same protocol as the HDAC1 enzyme activity test
T2 construct: purchased Calbiochem 382180
T2 sequence (Q9UBN7 1-1215): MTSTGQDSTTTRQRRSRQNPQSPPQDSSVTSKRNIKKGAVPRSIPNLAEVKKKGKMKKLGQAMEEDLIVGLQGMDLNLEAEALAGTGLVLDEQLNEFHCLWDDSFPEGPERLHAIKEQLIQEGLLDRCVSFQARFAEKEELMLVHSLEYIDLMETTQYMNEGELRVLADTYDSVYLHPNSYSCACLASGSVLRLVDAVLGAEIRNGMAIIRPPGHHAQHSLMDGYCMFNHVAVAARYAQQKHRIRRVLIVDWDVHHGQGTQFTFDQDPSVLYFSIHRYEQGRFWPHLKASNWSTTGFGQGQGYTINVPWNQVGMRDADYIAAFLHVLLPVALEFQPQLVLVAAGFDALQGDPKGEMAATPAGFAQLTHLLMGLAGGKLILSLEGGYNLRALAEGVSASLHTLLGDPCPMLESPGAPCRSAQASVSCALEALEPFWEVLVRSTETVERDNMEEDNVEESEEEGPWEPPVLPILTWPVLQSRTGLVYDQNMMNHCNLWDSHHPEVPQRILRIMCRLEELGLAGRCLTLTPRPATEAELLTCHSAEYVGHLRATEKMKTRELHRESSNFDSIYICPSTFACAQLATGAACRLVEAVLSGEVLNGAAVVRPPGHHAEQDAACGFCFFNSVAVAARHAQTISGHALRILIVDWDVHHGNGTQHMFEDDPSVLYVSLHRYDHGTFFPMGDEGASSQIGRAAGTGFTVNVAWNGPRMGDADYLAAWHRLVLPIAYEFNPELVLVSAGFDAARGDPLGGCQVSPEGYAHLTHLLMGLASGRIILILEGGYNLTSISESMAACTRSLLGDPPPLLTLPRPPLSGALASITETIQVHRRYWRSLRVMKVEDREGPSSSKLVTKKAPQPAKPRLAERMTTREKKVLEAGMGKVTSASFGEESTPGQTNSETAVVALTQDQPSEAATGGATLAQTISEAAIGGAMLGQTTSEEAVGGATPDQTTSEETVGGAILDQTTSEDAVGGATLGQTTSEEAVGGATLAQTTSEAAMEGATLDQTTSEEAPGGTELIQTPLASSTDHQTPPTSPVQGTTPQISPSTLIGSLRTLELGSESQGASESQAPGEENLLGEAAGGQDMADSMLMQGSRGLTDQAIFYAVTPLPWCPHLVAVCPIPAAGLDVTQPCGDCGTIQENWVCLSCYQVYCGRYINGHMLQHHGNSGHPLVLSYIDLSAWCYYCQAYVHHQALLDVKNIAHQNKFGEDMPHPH
In short: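 Fluorescence (Ex 360, Em 460) after 30 min developer step; IC50 from dose-response. Reaction: 0.3 μg recombinant enzyme, 10 μM Fluor de Lys-SIRT1 substrate, 5-fold compound dilutions, 60 min at 30° C. Same protocol for both isoforms.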

pIC50 (human recombinant HDAC1)	HDAC6 selectivity (fold) (human recombinant HDAC6)	pIC50 (human recombinant HDAC6)	SMILES
4.25	3779	7.82	O=S(=O)(C1CCN(C2COC2)CC1)N(Cc1ccc(-c2nnc(C(F)F)o2)cn1)c1ccc(F)c(Cl)c1 [Compound 11501, N-(3-chloro-4-fluorophenyl)-N-((5-(5-(difluoromethyl)-1,3,4-oxadiazol-2-yl)pyridin-2-yl)methyl)-1-(oxetan-3-yl)piperidine-4-sulfonamide]
4.11	5579	7.85	CC(=O)N1CC(N2CCC(S(=O)(=O)N(Cc3ccc(-c4nnc(C(F)F)o4)cn3)c3ccc(F)c(Cl)c3)CC2)C1 [Compound 11502, 1-(1-acetylazetidin-3-yl)-N-(3-chloro-4-fluorophenyl)-N-((5-(5-(difluoromethyl)-1,3,4-oxadiazol-2-yl)pyridin-2-yl)methyl)piperidine-4-sulfonamide]
4.14	4792	7.82	CS(=O)(=O)N1CC(N2CCC(S(=O)(=O)N(Cc3ccc(-c4nnc(C(F)F)o4)cn3)c3ccc(F)c(Cl)c3)CC2)C1 [Compound 11503, N-(3-chloro-4-fluorophenyl)-N-((5-(5-(difluoromethyl)-1,3,4-oxadiazol-2-yl)pyridin-2-yl)methyl)-1-(1-(methylsulfonyl)azetidin-3-yl)piperidine-4-sulfonamide]
4.06	4790	7.74	CCS(=O)(=O)N(Cc1ccc(-c2nnc(C(F)F)o2)cn1)c1ccc(Cl)c(C)c1 [Compound 11504, N-(4-chloro-3-methylphenyl)-N-((5-(5-(difluoromethyl)-1,3,4-oxadiazol-2-yl)pyridin-2-yl)methyl)ethanesulfonamide]
4.22	4646	7.89	CCS(=O)(=O)N(Cc1ccc(-c2nnc(C(F)F)o2)cn1)c1ccc(C)c(Cl)c1 [Compound 11505, N-(3-chloro-4-methylphenyl)-N-((5-(5-(difluoromethyl)-1,3,4-oxadiazol-2-yl)pyridin-2-yl)methyl)ethanesulfonamide]
4.29	3672	7.85	CCS(=O)(=O)N(Cc1ccc(-c2nnc(C(F)F)o2)cn1)c1ccc(Cl)c(Cl)c1 [Compound 11507, N-(3,4-dichlorophenyl)-N-((5-(5-(difluoromethyl)-1,3,4-oxadiazol-2-yl)pyridin-2-yl)methyl)ethanesulfonamide]

Further lines, the compound ahead of its results:

SMILES	pIC50 (human recombinant HDAC1)	HDAC6 selectivity (fold) (human recombinant HDAC6)	pIC50 (human recombinant HDAC6)
CCS(=O)(=O)N(Cc1ccc(-c2nnc(C(F)F)o2)cn1)c1cc(Cl)cc(Cl)c1 [Compound 11506, N-(3,5-dichlorophenyl)-N-((5-(5-(difluoromethyl)-1,3,4-oxadiazol-2-yl)pyridin-2-yl)methyl)ethanesulfonamide]	4.22	4977	7.92
CCS(=O)(=O)N(Cc1ccc(-c2nnc(C(F)F)o2)cn1)c1cc(C)cc(Cl)c1 [Compound 11508, N-(3-chloro-5-methylphenyl)-N-((5-(5-(difluoromethyl)-1,3,4-oxadiazol-2-yl)pyridin-2-yl)methyl)ethanesulfonamide]	4.30	2155	7.64
O=S(=O)(CCN1CCCC1)N(Cc1ccc(-c2nnc(C(F)F)o2)cc1F)c1ccc(F)c(Cl)c1 [Compound 11514, N-(3-chloro-4-fluorophenyl)-N-(4-(5-(difluoromethyl)-1,3,4-oxadiazol-2-yl)-2-fluorobenzyl)-2-(pyrrolidin-1-yl)ethane-1-sulfonamide]	4.39	938	7.37
CS(=O)(=O)N(Cc1cnc(-c2nnc(C(F)F)o2)cn1)c1ccccc1 [Compound 11518, N-((5-(5-(difluoromethyl)-1,3,4-oxadiazol-2-yl)pyrazin-2-yl)methyl)-N-phenylmethanesulfonamide]	4.40	586	7.17
